# According to ChEMBL document CHEMBL3352641, “Discovery of pyrrolo[1,2-b]pyridazine-3-carboxamides as Janus kinase (JAK) inhibitors” (Bioorg Med Chem Lett, 2014):
# Key:
# [1] = target: T1, Tyrosine-protein kinase JAK3 (Homo sapiens, UniProt P52333); experiment: Inhibition of JAK3 (unknown origin) by filter assay
# T1 sequence (P52333 whole entry): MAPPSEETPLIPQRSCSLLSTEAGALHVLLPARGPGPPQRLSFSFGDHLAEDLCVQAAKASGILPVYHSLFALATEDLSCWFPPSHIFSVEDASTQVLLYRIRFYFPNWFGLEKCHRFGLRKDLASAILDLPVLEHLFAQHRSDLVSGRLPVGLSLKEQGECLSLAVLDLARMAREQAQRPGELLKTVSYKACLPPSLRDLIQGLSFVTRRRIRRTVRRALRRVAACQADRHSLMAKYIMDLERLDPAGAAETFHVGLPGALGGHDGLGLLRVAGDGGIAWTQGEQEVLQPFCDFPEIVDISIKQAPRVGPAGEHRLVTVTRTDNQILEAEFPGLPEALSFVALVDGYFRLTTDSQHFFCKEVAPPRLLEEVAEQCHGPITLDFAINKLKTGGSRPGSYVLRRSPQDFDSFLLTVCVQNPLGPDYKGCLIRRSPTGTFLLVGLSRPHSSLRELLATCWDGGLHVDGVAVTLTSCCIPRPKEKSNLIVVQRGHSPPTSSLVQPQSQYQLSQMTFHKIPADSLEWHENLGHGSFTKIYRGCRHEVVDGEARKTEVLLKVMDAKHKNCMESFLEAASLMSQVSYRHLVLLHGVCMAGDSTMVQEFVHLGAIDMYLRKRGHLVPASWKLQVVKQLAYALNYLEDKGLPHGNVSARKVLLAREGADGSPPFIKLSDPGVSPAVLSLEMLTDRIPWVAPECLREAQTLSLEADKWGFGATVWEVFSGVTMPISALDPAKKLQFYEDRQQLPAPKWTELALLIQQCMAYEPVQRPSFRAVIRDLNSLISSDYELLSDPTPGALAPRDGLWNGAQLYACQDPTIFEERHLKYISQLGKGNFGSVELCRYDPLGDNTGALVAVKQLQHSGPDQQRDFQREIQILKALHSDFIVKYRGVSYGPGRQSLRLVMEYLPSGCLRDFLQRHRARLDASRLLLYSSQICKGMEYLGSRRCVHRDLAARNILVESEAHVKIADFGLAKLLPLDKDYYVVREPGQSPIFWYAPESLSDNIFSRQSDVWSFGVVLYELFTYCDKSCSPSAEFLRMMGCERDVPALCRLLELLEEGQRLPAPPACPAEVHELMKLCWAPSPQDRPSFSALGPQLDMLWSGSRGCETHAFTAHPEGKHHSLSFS
# [2] = target: Tyrosine-protein kinase JAK1 (Homo sapiens, UniProt P23458); experiment: Inhibition of JAK1 (unknown origin) bycaliper assay
# Chain of Tyrosine-protein kinase JAK1 (P23458 whole entry): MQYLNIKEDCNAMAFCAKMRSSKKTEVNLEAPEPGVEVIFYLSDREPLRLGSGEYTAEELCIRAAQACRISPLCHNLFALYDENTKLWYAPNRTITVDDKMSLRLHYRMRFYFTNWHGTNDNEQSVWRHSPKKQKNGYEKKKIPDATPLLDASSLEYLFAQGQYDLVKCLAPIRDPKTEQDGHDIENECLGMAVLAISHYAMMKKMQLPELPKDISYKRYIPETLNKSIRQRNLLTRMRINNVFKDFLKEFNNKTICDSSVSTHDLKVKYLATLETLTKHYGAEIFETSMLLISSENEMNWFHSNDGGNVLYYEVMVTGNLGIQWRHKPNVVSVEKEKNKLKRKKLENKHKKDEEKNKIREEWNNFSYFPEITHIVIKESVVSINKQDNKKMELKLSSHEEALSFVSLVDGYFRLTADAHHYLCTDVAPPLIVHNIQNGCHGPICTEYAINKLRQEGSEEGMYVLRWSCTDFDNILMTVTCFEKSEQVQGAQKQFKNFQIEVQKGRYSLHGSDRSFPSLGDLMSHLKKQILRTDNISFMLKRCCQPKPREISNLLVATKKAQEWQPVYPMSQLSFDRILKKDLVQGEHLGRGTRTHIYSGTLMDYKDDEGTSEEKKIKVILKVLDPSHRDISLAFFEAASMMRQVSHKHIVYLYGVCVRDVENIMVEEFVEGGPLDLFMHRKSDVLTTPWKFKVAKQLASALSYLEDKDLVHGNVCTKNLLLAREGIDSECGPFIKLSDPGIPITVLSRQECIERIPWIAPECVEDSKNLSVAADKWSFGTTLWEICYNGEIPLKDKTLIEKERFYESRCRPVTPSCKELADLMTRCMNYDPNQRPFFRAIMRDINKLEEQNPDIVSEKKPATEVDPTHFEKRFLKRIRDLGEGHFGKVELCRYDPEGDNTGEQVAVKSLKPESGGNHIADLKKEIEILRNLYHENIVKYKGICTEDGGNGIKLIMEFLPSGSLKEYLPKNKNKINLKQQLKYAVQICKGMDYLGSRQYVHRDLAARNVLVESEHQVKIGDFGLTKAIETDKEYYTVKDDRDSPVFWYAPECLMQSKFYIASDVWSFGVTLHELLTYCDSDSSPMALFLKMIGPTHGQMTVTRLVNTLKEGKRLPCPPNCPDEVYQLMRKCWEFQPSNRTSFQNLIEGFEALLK
# [3] = target: Non-receptor tyrosine-protein kinase TYK2 (Homo sapiens, UniProt P29597); experiment: Inhibition of TYK2 (unknown origin) by caliper assay
# Chain of Non-receptor tyrosine-protein kinase TYK2 (P29597 whole entry): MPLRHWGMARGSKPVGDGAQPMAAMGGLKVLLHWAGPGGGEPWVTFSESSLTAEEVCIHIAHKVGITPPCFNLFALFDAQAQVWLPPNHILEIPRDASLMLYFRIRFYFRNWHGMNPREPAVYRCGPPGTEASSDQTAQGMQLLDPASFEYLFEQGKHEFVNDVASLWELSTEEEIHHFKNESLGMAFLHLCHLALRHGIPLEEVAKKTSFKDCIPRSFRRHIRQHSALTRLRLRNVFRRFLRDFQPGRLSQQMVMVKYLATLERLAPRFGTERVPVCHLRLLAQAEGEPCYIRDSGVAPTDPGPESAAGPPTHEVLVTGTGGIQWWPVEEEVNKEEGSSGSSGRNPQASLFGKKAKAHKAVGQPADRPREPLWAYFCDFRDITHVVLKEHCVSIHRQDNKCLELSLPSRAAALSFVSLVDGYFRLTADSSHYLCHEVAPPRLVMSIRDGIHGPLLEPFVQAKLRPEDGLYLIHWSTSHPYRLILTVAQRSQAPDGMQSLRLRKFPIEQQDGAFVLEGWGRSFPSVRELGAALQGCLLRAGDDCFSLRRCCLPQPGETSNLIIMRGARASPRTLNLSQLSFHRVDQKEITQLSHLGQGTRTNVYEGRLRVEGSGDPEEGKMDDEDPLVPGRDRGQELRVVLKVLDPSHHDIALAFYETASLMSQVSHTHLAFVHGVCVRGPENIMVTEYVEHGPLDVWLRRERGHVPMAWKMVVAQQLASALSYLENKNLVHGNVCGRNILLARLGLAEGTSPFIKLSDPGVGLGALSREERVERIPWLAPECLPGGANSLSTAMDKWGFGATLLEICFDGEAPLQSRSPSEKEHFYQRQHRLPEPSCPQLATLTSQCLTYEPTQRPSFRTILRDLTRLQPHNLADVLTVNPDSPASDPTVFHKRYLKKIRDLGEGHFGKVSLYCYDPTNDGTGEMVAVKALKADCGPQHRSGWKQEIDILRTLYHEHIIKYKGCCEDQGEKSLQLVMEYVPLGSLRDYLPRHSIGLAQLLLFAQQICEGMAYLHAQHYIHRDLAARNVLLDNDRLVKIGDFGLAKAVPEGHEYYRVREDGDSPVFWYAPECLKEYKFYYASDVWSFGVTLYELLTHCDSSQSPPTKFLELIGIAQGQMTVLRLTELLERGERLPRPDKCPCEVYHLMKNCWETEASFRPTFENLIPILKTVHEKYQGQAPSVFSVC
# [4] = target: Tyrosine-protein kinase JAK2 (Homo sapiens, UniProt O60674); experiment: Inhibition of JAK2 (unknown origin) by caliper assay
# Chain of Tyrosine-protein kinase JAK2 (O60674 whole entry): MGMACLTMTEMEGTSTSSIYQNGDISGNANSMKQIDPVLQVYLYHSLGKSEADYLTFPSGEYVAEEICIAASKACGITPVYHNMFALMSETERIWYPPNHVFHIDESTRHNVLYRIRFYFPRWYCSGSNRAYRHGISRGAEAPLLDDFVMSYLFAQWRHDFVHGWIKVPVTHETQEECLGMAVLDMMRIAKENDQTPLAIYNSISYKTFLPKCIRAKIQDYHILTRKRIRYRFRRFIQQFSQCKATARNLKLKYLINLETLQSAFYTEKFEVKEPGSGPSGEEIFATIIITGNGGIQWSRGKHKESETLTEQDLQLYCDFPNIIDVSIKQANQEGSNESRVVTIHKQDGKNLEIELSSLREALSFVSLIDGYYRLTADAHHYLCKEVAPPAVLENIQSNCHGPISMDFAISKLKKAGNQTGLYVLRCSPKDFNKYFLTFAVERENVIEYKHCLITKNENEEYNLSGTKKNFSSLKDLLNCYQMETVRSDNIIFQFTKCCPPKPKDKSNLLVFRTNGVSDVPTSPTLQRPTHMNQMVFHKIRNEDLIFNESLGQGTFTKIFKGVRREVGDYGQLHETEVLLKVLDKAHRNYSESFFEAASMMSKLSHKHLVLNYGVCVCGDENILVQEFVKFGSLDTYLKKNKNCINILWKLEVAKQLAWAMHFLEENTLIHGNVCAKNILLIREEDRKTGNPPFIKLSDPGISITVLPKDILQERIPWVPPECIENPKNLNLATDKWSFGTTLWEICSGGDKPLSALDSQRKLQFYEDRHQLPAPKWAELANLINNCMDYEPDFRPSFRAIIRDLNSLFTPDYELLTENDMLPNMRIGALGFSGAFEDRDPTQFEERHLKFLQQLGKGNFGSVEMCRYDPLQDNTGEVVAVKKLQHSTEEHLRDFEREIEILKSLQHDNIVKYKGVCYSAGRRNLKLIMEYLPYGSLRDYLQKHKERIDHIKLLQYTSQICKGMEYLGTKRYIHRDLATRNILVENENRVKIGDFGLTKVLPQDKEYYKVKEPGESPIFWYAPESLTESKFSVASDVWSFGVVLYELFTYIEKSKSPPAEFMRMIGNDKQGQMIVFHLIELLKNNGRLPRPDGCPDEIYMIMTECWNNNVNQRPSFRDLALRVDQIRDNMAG
# [5] = system: Blood; experiment: Inhibition of IL2-induced IFN-gamma production in human whole blood incubated for 18 hrs by ELISA method; format: functional, tissue-based
# [6] = Fraction unbound in human serum; format: ADME, cell-free
IC50 [1] [nM],IC50 [2] [nM],IC50 [3] [nM],IC50 [4] [nM],IC50 [5] [nM],fraction unbound [6],Structure (SMILES)
28,67,210,100,5000,–,CC1(C)[C@H](Nc2c(C(N)=O)cnn3cccc23)CC[C@]1(C)O (racemic)
3,26,7,31,360,0.16,CC1(C)[C@H](Nc2c(C(N)=O)cnn3cccc23)CC[C@@]1(C)O (racemic)
30,150,280,350,3200,–,CC1(C)C[C@@](C)(O)C[C@H]1Nc1c(C(N)=O)cnn2cccc12 (racemic)
15,50,90,61,1700,–,CC1(C)C[C@](C)(O)C[C@H]1Nc1c(C(N)=O)cnn2cccc12 (racemic)
24,41,110,170,250,–,CC1(C)[C@H](N)CC[C@H]1Nc1c(C(N)=O)cnn2cccc12 (racemic)
12,34,110,130,260,0.44,CC1(C)[C@@H](N)CC[C@H]1Nc1c(C(N)=O)cnn2cccc12 (racemic)
69,110,–,–,–,–,C[C@]1(O)CCC[C@H]1Nc1c(C(N)=O)cnn2cccc12 (racemic)
42,270,–,–,5300,–,C[C@@]1(O)CCC[C@H]1Nc1c(C(N)=O)cnn2cccc12 (racemic)
24,84,34,110,1500,–,C[C@]1(CO)CCC[C@H]1Nc1c(C(N)=O)cnn2cccc12 (racemic)
140,250,390,380,–,–,C[C@@]1(CO)CCC[C@H]1Nc1c(C(N)=O)cnn2cccc12 (racemic)
10,15,6,–,250,0.27,C[C@]1(C#N)CCC[C@H]1Nc1c(C(N)=O)cnn2cccc12 (racemic)
43,100,110,210,–,–,C[C@@]1(F)CCC[C@H]1Nc1c(C(N)=O)cnn2cccc12 (racemic)
